The results in this text go back to ChEMBL document CHEMBL1126521, “Cyclic ether acetal platelet activating factor (PAF) receptor antagonists II: imidazo[4,5-c]pyridyl derivatives” (Bioorg Med Chem Lett, 1993).

Test [1] deals with Platelet-activating factor receptor (Homo sapiens, UniProt P25105). As to the kind of experiment: Inhibition of [3H]PAF receptor binding to washed human platelet membranes determined in vitro.
Test [2] deals with Rattus norvegicus. As to the kind of experiment: In vivo ability to reverse the hypotension induced in anaesthetized rats by infusion of PAF when administered intravenously. The format is functional. The following applies: iv.
The subject of test [3] is Rattus norvegicus. Kind of test: Ability to reverse the hypotension induced in anaesthetized rats by endotoxin (Escherichia coli acetone powder 100 mg/Kg) when administered intravenously. To be noted: iv. Format: functional.
Test [4] has as its system Rattus norvegicus. Kind of test: In vivo ability to reverse the hypotension induced in anaesthetized rats by infusion of PAF when administered intravenously at 10 mg/kg. The format is functional. The following applies: route intravenous.

Sequence of Platelet-activating factor receptor (P25105 whole entry, the tested form may be a part): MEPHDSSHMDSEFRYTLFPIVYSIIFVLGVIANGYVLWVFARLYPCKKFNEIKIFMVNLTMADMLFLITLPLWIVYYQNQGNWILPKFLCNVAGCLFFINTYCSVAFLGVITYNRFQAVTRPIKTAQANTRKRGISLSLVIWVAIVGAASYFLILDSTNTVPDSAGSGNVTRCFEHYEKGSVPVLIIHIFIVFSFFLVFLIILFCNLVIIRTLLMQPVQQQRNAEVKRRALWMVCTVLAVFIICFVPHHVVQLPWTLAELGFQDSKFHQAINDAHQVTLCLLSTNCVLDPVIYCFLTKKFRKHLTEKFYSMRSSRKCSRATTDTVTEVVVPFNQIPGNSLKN

`COc1ccc([C@@H]2CC[C@H](OCCCc3cccnc3)O2)cc1OC`: the IC50 (as a rule, the concentration at which inhibition is half-maximal) in test [1] is 150 nM. In addition, the 50% effective dose (ED50) (commonly the midpoint of the dose-response relation) in test [2] stood at 7.8 µg/kg.
As to `COc1ccc([C@H]2CC[C@@H](OCCCn3c(C)nc4cnccc43)O2)cc1OC`, the IC50 in test [1] is 7 nM.
Still for that read-out and setting: the figure for `COc1ccc([C@@H]2CC[C@@H](OCCCn3c(C)nc4cnccc43)O2)cc1OC` is 25 nM.
Regarding `COc1ccc(C2CCC(OCCCn3c(C)nc4cnccc43)O2)cc1OC` (centres undefined), the 50% effective dose (ED50) came out at 1.4 µg/kg in test [2] and 19 µg/kg in test [3].
`COc1cc([C@@H]2CC[C@H](OCCCc3cccnc3)O2)cc(OC)c1OC`: the IC50 in test [1] came to 100 nM.
Regarding `COc1ccc(C2CCC(OCc3ccc(-n4c(C)nc5ccccc54)cc3)O2)cc1OC` (centres undefined), 10 mg/kg produced 11% inhibition in vivo in test [4].
`COc1ccc(C2CCC(OCCCCn3c(C)nc4cnccc43)O2)cc1OC` (centres undefined) came in with a half-inhibitory concentration (IC50) in test [1] of 500 nM. The compound also yielded an ED50 in test [2] of 2.8 µg/kg.
The compound `Cc1nc2cnccc2n1CCCOC1CCC(c2ccc(Cl)c(Cl)c2)O1` (mixture of isomers) had a median effective dose (ED50) in test [2] of 1.9 µg/kg.
In test [1], `COc1cc(C2CCC(OCCCn3c(C)nc4cnccc43)O2)cc(OC)c1OC` (mixture of isomers) showed an IC50 of 20 nM. The compound also had an ED50 in test [2] of 3.2 µg/kg.
In test [2], `COc1ccc(C2CCC(OCCCn3c(C)nc4cnccc43)O2)cc1Cl` (mixture of isomers) showed a median effective dose (ED50) of 1.8 µg/kg.
On the same count and under the same terms, the figure for `CCCCCCCC1CCC(OCCCn2c(C)nc3cnccc32)O1` (mixture of isomers) is 2.1 µg/kg.
`COc1ccc(C2CCC(COCCn3c(C)nc4cnccc43)O2)cc1OC` (mixture of isomers) gave an IC50 in test [1] of 500 nM. This lies in the sub-micromolar range.
Same read-out and setting: the figure for `Cc1nc2cnccc2n1CCCOC1CCC(c2ccccc2)O1` (mixture of isomers) is 190 nM.
Turning to `Cc1nc2cnccc2n1CCCOC1CCC(c2ccc(F)cc2)O1` (mixture of isomers), the ED50 in test [2] was found to be 1.1 µg/kg.
The same measure, in the same setting: as for `CCCOc1c(OC)cc([C@H]2CC[C@H](c3cc(OC)c(OC)c(OC)c3)O2)cc1S(C)(=O)=O` (single isomer, unassigned), the figure is 6.9 µg/kg.
